{"source": "patent US11008325B2", "about": "“Inhibitors of cancer invasion, attachment, and/or metastasis” (VIRGINIA COMMONWEALTH UNIVERSITY, priority 2016, dated 2021)", "key": {"[1]": {"test_system": "Mcl-1, Bcl-xL, Bid, MT1-MMP-PEX domain, IL20R, RKIP, Jnk2, Ubc13, SIAH1, Ship2-SAM", "experiment": "binding to panel of protein-protein interaction proteins", "conditions": "50 μM, 1:1 ligand/protein ratio", "experimental": "In addition, the molecules are tested against a series of proteins available in the laboratory involved in protein-protein interactions including Mcl-1, Bcl-xL, Bid, MT1-MMP-PEX domain, IL20R, RKIP, Jnk2 (JIP-binding site Met labeled), Ubc13, SIAH1, and Ship2-SAM. […] In designing compounds using elements of the libraries, particular emphasis will be put on drug-like properties of the compounds. […] Additionally, the MTD and PK properties on selected compounds prior to their eventual evaluations in vivo in will be addressed. Preliminarily, PK studies with 113B7 indicate that the compound is stable and long-lived with nearly 100% bioavailability when administered IP (FIG. 53)."}, "[2]": {"test_system": "U87-EGFRvIII cells", "experiment": "immunoblot of EGFRvIII/FAK/NF-kB signaling with radiation", "format": "cell-based, human", "experimental": "FIGS. 9A-9C. PDZ1i treatment impairs EGFRvIII and FAK signaling, as well as EGFRvIII-MDA-9 interaction. FIG. 9A. Immunoblot analysis showing expression of mutated EGFR in U87 or U87EGFRvIII cells. FIG. 9B. Cells were treated with either DMSO or PDZ1i 2 hrs prior to radiation. These cells were subsequently seeded on fibronectin-coated plates and cell lysates were collected after 1 hr and analyzed for protein expression. FIG. 9C. Lysates from cells treated with and without radiation or PDZ1i as indicated were analyzed via immunoprecipitation. Anti-MDA-9, top, and anti-EGFR, bottom, were used to pull down associated complexes, and western blotting was performed with the indicated antibodies. Left lanes include IgG and control input samples.\nPDZ1i inhibits EGFRvIII-driven signaling in GBM and reduces MMP secretion. EGFR amplification and mutation is both a common and important alteration in GBM. A particular mutation of this receptor, EGFRvIII, is often co-expressed along with EGFR amplification in GBM. […] U87 cells stably expressing EGFRvIII, U87-EGFRvIII (FIG. 9), were treated with PDZ1i prior to radiation. […]\nPreparation of whole-cell lysates and Western blotting analysis was performed as described (5). For densitometry evaluation, X-ray films were scanned and analyzed with ImageJ software (NIH)."}, "[3]": {"molecular_target": "T1, MDA-9/Syntenin and c-Src interactions (Homo sapiens, UniProt O00560)", "T1 construct": "endogenous in cells; host or cells: C8161.9 melanoma cells", "T1 sequence (O00560 2-298 limits assumed)": "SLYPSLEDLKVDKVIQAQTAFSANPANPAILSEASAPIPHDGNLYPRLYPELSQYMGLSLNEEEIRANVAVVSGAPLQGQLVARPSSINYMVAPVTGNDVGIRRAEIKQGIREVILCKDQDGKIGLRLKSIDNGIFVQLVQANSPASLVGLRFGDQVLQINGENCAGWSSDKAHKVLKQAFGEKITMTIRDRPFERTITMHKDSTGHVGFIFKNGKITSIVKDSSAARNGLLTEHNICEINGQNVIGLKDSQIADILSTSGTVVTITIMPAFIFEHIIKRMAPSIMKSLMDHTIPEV", "T1 sequence (P12931 2-536 partner limits assumed)": "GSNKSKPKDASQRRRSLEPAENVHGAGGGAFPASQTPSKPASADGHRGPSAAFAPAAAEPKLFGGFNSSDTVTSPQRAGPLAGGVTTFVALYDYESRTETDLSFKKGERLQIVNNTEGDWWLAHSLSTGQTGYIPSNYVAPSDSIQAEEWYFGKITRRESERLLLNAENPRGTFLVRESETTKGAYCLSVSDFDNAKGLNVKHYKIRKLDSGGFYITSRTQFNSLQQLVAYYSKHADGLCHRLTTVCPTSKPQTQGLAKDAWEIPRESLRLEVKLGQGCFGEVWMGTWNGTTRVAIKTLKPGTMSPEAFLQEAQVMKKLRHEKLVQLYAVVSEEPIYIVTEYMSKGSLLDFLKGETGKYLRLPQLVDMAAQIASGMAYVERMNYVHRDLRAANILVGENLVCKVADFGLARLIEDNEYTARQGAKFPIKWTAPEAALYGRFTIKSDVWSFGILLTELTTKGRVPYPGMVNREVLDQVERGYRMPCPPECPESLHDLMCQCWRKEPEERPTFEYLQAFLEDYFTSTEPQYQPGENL", "experiment": "co-immunoprecipitation in C8161.9 cells", "format": "cell-based", "experimental": "FIG. 54. Effects of PDZ1in (113B7) on MDA-9/Syntenin and c-Src interactions. C8161.9 cells were pre-treated with either DMSO or a dose of 113B7 (as indicated) and re-plated onto fibronectin-coated plates. After 30 minutes, cell lysates were immunoprecipitated and immuneblotted with the indicated antibodies. IgG, immunoglobulin.\nAnother fundamental issue that we will address as part of the proposed hit-to-lead optimization process is the specificity of the binding of 113B7 to the PDZ1 domain of MDA-9/Syntenin. […] To determine if the PDZin molecule alters physical binding we performed co-immunoprecipitation analysis with c-Src and MDA-9/Syntenin in the presence or absence of 113B7 (FIG. 54). In the case of 113B7, which binds to PDZ1 and the interdomain of MDA-9/Syntenin, no inhibition of c-Src binding was evident."}, "[4]": {"test_system": "HuVEC cells / chorioallantoic membrane", "experiment": "in vitro tube formation and CAM assays with tumor-derived conditioned media", "format": "cell-based", "conditions": "data not shown", "experimental": "In this study, the potential impact of PDZ1i on tumor-derived angiogenesis in a prostate cancer context was explored. The experimental strategy is outlined in FIG. 18A. […] This observation was also validated in different PC cells by qPCR. Additionally, since VEGF-A is a potent angiogenic factor and a downstream target of STAT3, the expression pattern of VEGF-A at both mRNA and protein levels was also evaluated in different PC cells, including mda-9 stably expressing RWPE-1 cells (FIG. 18C).\nTube formation and CAM assays were performed as described previously^27. Briefly, tumor-derived conditioned media were collected after 24 h of treatment (either DMSO or PDZ1i) and concentrated. Equal amounts of protein (50 μg) containing conditioned media were mixed with basal media and incubated with HuVEC cells on Matrigel layers. Photographs were taken after 6 h. In CAM assays, DMSO- or PDZ1 i-treated tumor cell-derived conditioned media were implanted on the CAM of 8 day-old fertilized eggs. Photographs were taken on day 12, 4 days after applying conditioned media."}, "[5]": {"experiment": "toxicity in vivo in pre-clinical animal models", "conditions": "listed as PDZ1i"}}, "note": "“Also recorded” adds a separate entry of the source."}
{"smiles": "Cc1cc(NC(=O)c2nc3[nH]c4c(c(=O)n3n2)CCC4)c(C)cc1NC(=O)CCc1nnc(-c2ccccc2)o1", "note": "[113B7, N-(2,5-dimethyl-4-(3-(5-phenyl-1,3,4-oxadiazol-2-yl)propanamido)phenyl)-8-oxo-5,6,7,8-tetrahydro-4H-cyclopenta[d][1,2,4]triazolo[1,5-a]pyrimidine-2-carboxamide]", "values": [{"measurement": "binding to protein-protein interaction panel", "setting": "[1]", "value": "no appreciable binding"}, {"measurement": "FAK activation after radiation", "setting": "[2]; PDZ1i prior to radiation", "value": "nullified"}, {"measurement": "phospho-EGFR", "setting": "[2]; radiated and non-radiated cells", "value": "significantly reduced"}, {"measurement": "c-Src binding to MDA-9/Syntenin", "setting": "[3]", "value": "no inhibition"}, {"measurement": "angiogenic activity of treated tumor cell-derived conditioned media", "setting": "[4]", "value": "anti-angiogenic properties"}, {"measurement": "toxicity / tolerability in vivo", "setting": "[5]", "value": "well-tolerated; also recorded: no apparent toxicity"}]}
